Results: ChEMBL document CHEMBL1201862, “PubChem BioAssay data set” (2004)
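Exposure lasted 48 hours, with cells grown in 96-well plates and compounds tested at five concentrations. GI50 marks 50% less growth.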 Active and inactive are the calls of the source. Rule as the data show it: active = GI50 up to about 1.1 µM and inactive = higher.

How the values were obtained:
Assay in all cases: NCI-60 cell line screen, 48 h
786-0 = system: 786-0
A549 = system: A549
ACHN = system: ACHN
CAKI-1 = system: CAKI-1
COLO 205 = system: COLO 205
DLD-1 = system: DLD-1
DMS-114 = system: DMS-114
DMS-273 = system: DMS-273
EKVX = system: EKVX
HCT-116 = system: HCT-116
HCT-15 = system: HCT-15
HOP-18 = system: HOP-18
HT-29 = system: HT-29
IGROV-1 = system: IGROV-1
K562 = system: K562
KM-20L2 = system: KM-20L2
KM12 = system: KM12
LXFL 529 = system: LXFL 529
M19-MEL = system: M19-MEL
MOLT-4 = system: MOLT-4
Malme-3M = system: Malme-3M
NCI-H226 = system: NCI-H226
NCI-H23 = system: NCI-H23
NCI-H460 = system: NCI-H460
NCI-H522 = system: NCI-H522
OVCAR-4 = system: OVCAR-4
OVCAR-5 = system: OVCAR-5
OVCAR-8 = system: OVCAR-8
RPMI-8226 = system: RPMI-8226
RXF 393 = system: RXF 393
SF-295 = system: SF-295
SF-539 = system: SF-539
SK-MEL-28 = system: SK-MEL-28
SK-MEL-2 = system: SK-MEL-2
SK-MEL-5 = system: SK-MEL-5
SK-OV-3 = system: SK-OV-3
SN12C = system: SN12C
SNB-19 = system: SNB-19
SNB-75 = system: SNB-75
SNB-78 = system: SNB-78
SR = system: SR
SW-620 = system: SW-620
TK-10 = system: TK-10
U-251 = system: U-251
UACC-257 = system: UACC-257
UACC-62 = system: UACC-62
UO-31 = system: UO-31
XF498 = system: XF498
CCRF-CEM = system: CCRF-CEM
HCC 2998 = system: HCC 2998
HL-60 = system: HL-60
HOP-62 = system: HOP-62
HOP-92 = system: HOP-92
LOX IMVI = system: LOX IMVI
M14 = system: M14
OVCAR-3 = system: OVCAR-3
SF-268 = system: SF-268
A498 = system: A498
MCF7 = system: MCF7
NCI/ADR-RES = system: NCI/ADR-RES

CN1CCCC2[C@@H]3CCC4c5nonc5CC[C@]4(C)C3CC[C@@]21C (some centres not stated)
GI50 (786-0): > 100 µM (inactive) | GI50 (A549): > 100 µM (inactive) | GI50 (ACHN): > 100 µM (inactive) | GI50 (CAKI-1): > 100 µM (inactive) | GI50 (COLO 205): > 100 µM (inactive) | GI50 (DLD-1): 51.1 µM (inactive) | GI50 (DMS-114): > 100 µM (inactive) | GI50 (DMS-273): 93.3 µM (inactive) | GI50 (EKVX): > 100 µM (inactive) | GI50 (HCT-116): > 100 µM (inactive) | GI50 (HCT-15): 57.7 µM | GI50 (HOP-18): > 100 µM (inactive) | GI50 (HT-29): 38.1 µM (inactive) | GI50 (IGROV-1): > 100 µM (inactive) | GI50 (K562): 67.8 µM (inactive) | GI50 (KM-20L2): 23.3 µM (inactive) | GI50 (KM12): > 100 µM (inactive) | GI50 (LXFL 529): 84.7 µM (inactive) | GI50 (M19-MEL): 63.8 µM (inactive) | GI50 (MOLT-4): > 100 µM (inactive) | GI50 (Malme-3M): > 100 µM (inactive) | GI50 (NCI-H226): > 100 µM (inactive) | GI50 (NCI-H23): > 100 µM (inactive) | GI50 (NCI-H460): > 100 µM (inactive) | GI50 (NCI-H522): > 100 µM (inactive) | GI50 (OVCAR-4): > 100 µM (inactive) | GI50 (OVCAR-5): > 100 µM (inactive) | GI50 (OVCAR-8): > 100 µM (inactive) | GI50 (RPMI-8226): > 100 µM (inactive) | GI50 (RXF 393): 50.1 µM (inactive) | GI50 (SF-295): 43.2 µM (inactive) | GI50 (SF-539): > 100 µM (inactive) | GI50 (SK-MEL-28): 37.6 µM (inactive) | GI50 (SK-MEL-2): > 100 µM (inactive) | GI50 (SK-MEL-5): 42.5 µM (inactive) | GI50 (SK-OV-3): 17.9 µM (inactive) | GI50 (SN12C): 98.6 µM (inactive) | GI50 (SNB-19): > 100 µM (inactive) | GI50 (SNB-75): 23.4 µM (inactive) | GI50 (SNB-78): > 100 µM (inactive) | GI50 (SR): > 100 µM (inactive) | GI50 (SW-620): > 100 µM (inactive) | GI50 (TK-10): > 100 µM (inactive) | GI50 (U-251): > 100 µM (inactive) | GI50 (UACC-257): 35 µM (inactive) | GI50 (UACC-62): 24.7 µM (inactive) | GI50 (UO-31): > 100 µM (inactive) | GI50 (XF498): 24.4 µM (inactive)

O=C(c1ccccc1)c1nnn(Cc2cccc(Cl)c2)c1C(=O)c1ccccc1
GI50 (786-0): > 100 µM (inactive) | GI50 (A549): 25.2 µM (inactive) | GI50 (ACHN): > 100 µM (inactive) | GI50 (CAKI-1): 98.2 µM (inactive) | GI50 (CCRF-CEM): > 100 µM (inactive) | GI50 (COLO 205): 15 µM (inactive) | GI50 (DLD-1): > 100 µM (inactive) | GI50 (DMS-114): 78 µM (inactive) | GI50 (DMS-273): > 100 µM (inactive) | GI50 (EKVX): 44.8 µM (inactive) | GI50 (HCC 2998): 44 µM (inactive) | GI50 (HCT-116): > 100 µM (inactive) | GI50 (HCT-15): > 100 µM | GI50 (HL-60): > 100 µM (inactive) | GI50 (HOP-18): > 100 µM (inactive) | GI50 (HOP-62): > 100 µM (inactive) | GI50 (HOP-92): > 100 µM (inactive) | GI50 (HT-29): > 100 µM (inactive) | GI50 (IGROV-1): > 100 µM (inactive) | GI50 (K562): > 100 µM (inactive) | GI50 (KM-20L2): > 100 µM (inactive) | GI50 (KM12): > 100 µM (inactive) | GI50 (LOX IMVI): > 100 µM (inactive) | GI50 (LXFL 529): 97.5 µM (inactive) | GI50 (M14): > 100 µM (inactive) | GI50 (M19-MEL): > 100 µM (inactive) | GI50 (MOLT-4): > 100 µM (inactive) | GI50 (Malme-3M): > 100 µM (inactive) | GI50 (NCI-H226): > 100 µM (inactive) | GI50 (NCI-H23): > 100 µM (inactive) | GI50 (NCI-H460): 8.17 µM (inactive) | GI50 (NCI-H522): > 100 µM (inactive) | GI50 (OVCAR-3): > 100 µM (inactive) | GI50 (OVCAR-4): > 100 µM (inactive) | GI50 (OVCAR-5): > 100 µM (inactive) | GI50 (OVCAR-8): > 100 µM (inactive) | GI50 (RPMI-8226): > 100 µM (inactive) | GI50 (RXF 393): > 100 µM (inactive) | GI50 (SF-268): > 100 µM (inactive) | GI50 (SF-295): > 100 µM (inactive) | GI50 (SK-MEL-28): > 100 µM (inactive) | GI50 (SK-MEL-2): > 100 µM (inactive) | GI50 (SK-MEL-5): 88.3 µM (inactive) | GI50 (SK-OV-3): 34.8 µM (inactive) | GI50 (SNB-19): > 100 µM (inactive) | GI50 (SNB-75): > 100 µM (inactive) | GI50 (SNB-78): > 100 µM (inactive) | GI50 (SR): > 100 µM (inactive) | GI50 (SW-620): > 100 µM (inactive) | GI50 (TK-10): > 100 µM (inactive) | GI50 (U-251): > 100 µM (inactive) | GI50 (UACC-257): > 100 µM (inactive) | GI50 (UACC-62): > 100 µM (inactive) | GI50 (UO-31): > 100 µM (inactive) | GI50 (XF498): > 100 µM (inactive)

O=NN1C(c2ccccc2)C2CCCC(C2=O)C1c1ccccc1 (configuration not stated)
GI50 (A498): 34 µM (inactive) | GI50 (A549): 34 µM (inactive) | GI50 (CAKI-1): 41.4 µM (inactive) | GI50 (CCRF-CEM): 28.3 µM (inactive) | GI50 (COLO 205): 17.5 µM (inactive) | GI50 (DLD-1): 43.3 µM (inactive) | GI50 (DMS-114): 32.5 µM (inactive) | GI50 (DMS-273): 23.8 µM (inactive) | GI50 (EKVX): 28.4 µM (inactive) | GI50 (HCC 2998): 16.6 µM (inactive) | GI50 (HCT-116): 25.5 µM (inactive) | GI50 (HCT-15): 29.3 µM | GI50 (HL-60): 19.3 µM (inactive) | GI50 (HOP-18): 8.73 µM (inactive) | GI50 (HOP-62): 27 µM (inactive) | GI50 (HOP-92): 22 µM (inactive) | GI50 (HT-29): 18.1 µM (inactive) | GI50 (IGROV-1): 40 µM (inactive) | GI50 (K562): 21.1 µM (inactive) | GI50 (KM-20L2): 16 µM (inactive) | GI50 (KM12): 32.5 µM (inactive) | GI50 (LOX IMVI): 22.9 µM (inactive) | GI50 (M19-MEL): 18.9 µM (inactive) | GI50 (MCF7): 20.7 µM (inactive) | GI50 (MOLT-4): 27.1 µM (inactive) | GI50 (Malme-3M): 7.53 µM (inactive) | GI50 (NCI-H226): 25.1 µM (inactive) | GI50 (NCI-H23): 19.7 µM (inactive) | GI50 (NCI-H460): 22 µM (inactive) | GI50 (NCI-H522): 19.1 µM (inactive) | GI50 (NCI/ADR-RES): 32.7 µM (inactive) | GI50 (OVCAR-3): 4.82 µM (inactive) | GI50 (OVCAR-4): 23.9 µM (inactive) | GI50 (OVCAR-5): 37.2 µM (inactive) | GI50 (OVCAR-8): 37.7 µM (inactive) | GI50 (RPMI-8226): 22.3 µM (inactive) | GI50 (RXF 393): 18.9 µM (inactive) | GI50 (SF-268): 49.8 µM (inactive) | GI50 (SF-295): 30.8 µM (inactive) | GI50 (SF-539): 44.6 µM (inactive) | GI50 (SK-MEL-28): 21.7 µM (inactive) | GI50 (SK-MEL-2): 20.2 µM (inactive) | GI50 (SK-MEL-5): 18.7 µM (inactive) | GI50 (SK-OV-3): 24.5 µM (inactive) | GI50 (SN12C): 26.2 µM (inactive) | GI50 (SNB-19): 42.6 µM (inactive) | GI50 (SNB-75): 22.8 µM (inactive) | GI50 (SNB-78): 40.3 µM (inactive) | GI50 (SW-620): 43.9 µM (inactive) | GI50 (U-251): 29.3 µM (inactive) | GI50 (UACC-257): 24 µM (inactive) | GI50 (UACC-62): 20.4 µM (inactive) | GI50 (UO-31): 22.9 µM (inactive) | GI50 (XF498): 13.6 µM (inactive)
